Results: patent US9675592B2, “Methods and compositions for bacteria infections” (priority 2013, dated 2017)
Where two headings read alike, the source gives them in different places.

What was measured:
[1] = system: test strain 923 pPvra-lux; test: Secondary screen / synergy confirmation of Top 40, relative growth with oxacillin; type: cell-based, Staphylococcus aureus; settings: Top 40 library, compound at maximum non-GI conc
Experimental: In the secondary screen each microtiter plate contained either cells in TSB alone (16 replicates), cells with oxacillin (2 μg/mL, 31 replicates), or cells with test compound and oxacillin (2 μg/mL, 49 wells). Each compound was assayed in four separate biological replicates.
Synergy Confirmation of “Top 40”. […]

[2] = system: vraSR promoter (Pvra-lux reporter in strain 923); type: cell-based, Staphylococcus aureus; settings: for RL Ox avg: Top 40 library, with oxacillin, compound at maximum non-GI conc; for vraSR repressing synergist: overall class from syn and rep
Experimental: In the secondary screen each microtiter plate contained either cells in TSB alone (16 replicates), cells with oxacillin (2 μg/mL, 31 replicates), or cells with test compound and oxacillin (2 μg/mL, 49 wells). Each compound was assayed in four separate biological replicates. […]

[3] = system: test strain (923 pPvra-lux); test: Growth inhibition by compound alone (maximum non-growth-inhibitory concentration); type: cell-based, Staphylococcus aureus; settings: compound alone; maximum concentration where it did NOT inhibit growth
multiple strains of MRSA = test: MICs (minimal inhibitory concentrations) vs multiple strains of MRSA; type: cell-based, Staphylococcus aureus
[4] = system: test strain 923 pPvra-lux (USA300 MRSA); test: Primary screen, relative growth in presence of oxacillin; settings: compound 10 μM with oxacillin 2 μg/mL, absorbance 24 h, <0.50 = dead cells = hit
[5] = system: vraSR promoter (Pvra-lux reporter in strain 923); test: Primary screen, relative luminescence (vraSR expression)
[6] = isolate 923, SCCmec IV, ST 8, compound at 2 mg/L
[7] = isolate 1176, SCCmec II, ST 231, compound at 2 mg/L
[8] = isolate 2169, SCCmec IV, ST 72, compound at 2 mg/L
[9] = isolate 8004-01, SCCmec III, ST 239, compound at 2 mg/L
[10] = isolate 8010-01, SCCmec IV, ST 8, compound at 2 mg/L
[11] = isolate 8227-01, SCCmec IV, ST 87, compound at 2 mg/L
[12] = isolate 11095, SCCmec II, ST 105, compound at 2 mg/L
[13] = isolate 13113, SCCmec II, ST 5, compound at 2 mg/L
[14] = isolate 13354, SCCmec IV, ST 5, compound at 2 mg/L
[15] = isolate 14315, SCCmec IV, ST 1, compound at 2 mg/L
[16] = isolate Q2461, SCCmec VT, ST 59, compound at 2 mg/L
[17] = primary screen, compound 10 μM with oxacillin 2 μg/mL, <0.50 = vraSR repressed = hit

Row | Compound | RG Ox avg [1] | RL Ox avg [2] | vraSR repressing synergist [2] | maximum non-GI conc [3] [µg/mL] | RG avg (relative growth) [4] | RL avg (relative luminescence) [5, 17] | further results
1 | O=C(Nc1ccc(Cl)c(Cl)c1)Nc1ccc2cn[nH]c2c1 [F5882-3050] | 0.02 | 0.07 | 1. confirmed | 400 | 0.39 | 0.25 | Ox MIC in presence of compound (multiple strains of MRSA; [6]): <0.25 µg/mL; Ox MIC in presence of compound (multiple strains of MRSA; [7]): <0.5 µg/mL; Ox MIC in presence of compound (multiple strains of MRSA; [8]): <0.25 µg/mL; Ox MIC in presence of compound (multiple strains of MRSA; [9]): 32 µg/mL; Ox MIC in presence of compound (multiple strains of MRSA; [10]): <0.25 µg/mL; Ox MIC in presence of compound (multiple strains of MRSA; [11]): <0.06 µg/mL; Ox MIC in presence of compound (multiple strains of MRSA; [12]): <2 µg/mL; Ox MIC in presence of compound (multiple strains of MRSA; [13]): <0.13 µg/mL; Ox MIC in presence of compound (multiple strains of MRSA; [14]): <0.13 µg/mL; Ox MIC in presence of compound (multiple strains of MRSA; [15]): <0.5 µg/mL; Ox MIC in presence of compound (multiple strains of MRSA; [16]): 0.5 µg/mL
2 | Cc1ccc(S(=O)(=O)Nc2ccccc2C(=O)Nc2nc3c(C)ccc(C)c3s2)cc1 [F1813-0712] | 0.71 | 0.20 | 2. possible | 400 | −0.01 | – | Ox MIC in presence of compound (multiple strains of MRSA; isolate 923, SCCmec IV, ST 8, compound at 4 mg/L): 4 µg/mL; Ox MIC in presence of compound (multiple strains of MRSA; isolate 1176, SCCmec II, ST 231, compound at 4 mg/L): 16 µg/mL; Ox MIC in presence of compound (multiple strains of MRSA; isolate 2169, SCCmec IV, ST 72, compound at 4 mg/L): 8 µg/mL; Ox MIC in presence of compound (multiple strains of MRSA; isolate 8004-01, SCCmec III, ST 239, compound at 4 mg/L): 512 µg/mL; Ox MIC in presence of compound (multiple strains of MRSA; isolate 8010-01, SCCmec IV, ST 8, compound at 4 mg/L): 16 µg/mL; Ox MIC in presence of compound (multiple strains of MRSA; isolate 8227-01, SCCmec IV, ST 87, compound at 4 mg/L): 0.5 µg/mL; Ox MIC in presence of compound (multiple strains of MRSA; isolate 11095, SCCmec II, ST 105, compound at 4 mg/L): 256 µg/mL; Ox MIC in presence of compound (multiple strains of MRSA; isolate 13113, SCCmec II, ST 5, compound at 4 mg/L): 16 µg/mL; Ox MIC in presence of compound (multiple strains of MRSA; isolate 13354, SCCmec IV, ST 5, compound at 4 mg/L): 8 µg/mL; Ox MIC in presence of compound (multiple strains of MRSA; isolate 14315, SCCmec IV, ST 1, compound at 4 mg/L): 16 µg/mL; Ox MIC in presence of compound (multiple strains of MRSA; isolate Q2461, SCCmec VT, ST 59, compound at 4 mg/L): 16 µg/mL; RL avg (relative luminescence) [5]: 0.00
3 | Oc1ccc(C2(c3cccc(Br)c3)CCCCC2)cc1 [F0020-1560] | 0.68 | 0.17 | 2. possible | 40 | 0.02 | −0.01 | Ox MIC in presence of compound (multiple strains of MRSA; isolate 923, SCCmec IV, ST 8, compound at 1 mg/L): 1 µg/mL; Ox MIC in presence of compound (multiple strains of MRSA; isolate 1176, SCCmec II, ST 231, compound at 1 mg/L): <0.5 µg/mL; Ox MIC in presence of compound (multiple strains of MRSA; isolate 2169, SCCmec IV, ST 72, compound at 1 mg/L): 1 µg/mL; Ox MIC in presence of compound (multiple strains of MRSA; isolate 8004-01, SCCmec III, ST 239, compound at 1 mg/L): <4 µg/mL; Ox MIC in presence of compound (multiple strains of MRSA; isolate 8010-01, SCCmec IV, ST 8, compound at 1 mg/L): 1 µg/mL; Ox MIC in presence of compound (multiple strains of MRSA; isolate 8227-01, SCCmec IV, ST 87, compound at 1 mg/L): 0.25 µg/mL; Ox MIC in presence of compound (multiple strains of MRSA; isolate 11095, SCCmec II, ST 105, compound at 1 mg/L): <2 µg/mL; Ox MIC in presence of compound (multiple strains of MRSA; isolate 13113, SCCmec II, ST 5, compound at 1 mg/L): <0.13 µg/mL; Ox MIC in presence of compound (multiple strains of MRSA; isolate 13354, SCCmec IV, ST 5, compound at 1 mg/L): <0.13 µg/mL; Ox MIC in presence of compound (multiple strains of MRSA; isolate 14315, SCCmec IV, ST 1, compound at 1 mg/L): <0.5 µg/mL; Ox MIC in presence of compound (multiple strains of MRSA; isolate Q2461, SCCmec VT, ST 59, compound at 1 mg/L): 4 µg/mL
4 | Fc1cccc(Nc2nc(Nc3ccc(F)c(Cl)c3)nc(N3CCOCC3)n2)c1 [F2703-0396] | 0.01 | 0.34 | 1. confirmed | 400 | 0.06 | 0.19 | Ox MIC in presence of compound (multiple strains of MRSA; [6]): <0.25 µg/mL; Ox MIC in presence of compound (multiple strains of MRSA; [7]): <0.5 µg/mL; Ox MIC in presence of compound (multiple strains of MRSA; [8]): <0.25 µg/mL; Ox MIC in presence of compound (multiple strains of MRSA; [9]): 64 µg/mL; Ox MIC in presence of compound (multiple strains of MRSA; [10]): <0.25 µg/mL; Ox MIC in presence of compound (multiple strains of MRSA; [11]): <0.06 µg/mL; Ox MIC in presence of compound (multiple strains of MRSA; [12]): <2 µg/mL; Ox MIC in presence of compound (multiple strains of MRSA; [13]): <0.13 µg/mL; Ox MIC in presence of compound (multiple strains of MRSA; [14]): <0.13 µg/mL; Ox MIC in presence of compound (multiple strains of MRSA; [15]): <0.5 µg/mL; Ox MIC in presence of compound (multiple strains of MRSA; [16]): <0.13 µg/mL
5 | CC(=O)Nc1ccc(Nc2cc(C(C)C)nc3c(-c4ccccc4)cnn23)cc1 [F3348-0533] | 0.02 | 0.10 | 1. confirmed | 400 | 0.02 | 0.01 | –
6 | O=C(Nc1nnc(-c2ccc(OC(F)(F)F)cc2)o1)C1(c2cccs2)CCCC1 [F2517-0863] | 0.92 | 1.18 | 3. no effect | 4 | 0.02 | −0.06 | –
7 | Cc1ccc(C)c2sc(NC(=O)c3cccs3)nc12 [F0600-1305] | 0.94 | 0.15 | 3. no effect | 400 | 0.36 | 0.22 | –
8 | CC1CCN(C(C)CNC(=O)Nc2ccc(C(F)(F)F)cc2)CC1 (centres unmarked) [F2438-0002] | 0.95 | 0.62 | 3. no effect | 40 | −0.02 | −0.18 | –
9 | CN1CCN(c2nc(Nc3ccc(SC(F)F)cc3)c3cnn(-c4ccccc4)c3n2)CC1 [F2090-0579] | 0.30 | 0.11 | 1. confirmed | 400 | 0.00 | 0.04 | –
